Assay [1] deals with 55 pharmacologically relevant receptors. Kind of assay: Cerep ExpresSProfile screen, whole panel. The conditions noted are these: 10 μM; inhibition of binding greater than 50% = significant binding. From the text: To further define the specificity of PTX-BD4-3 for TrkB, we screened 55 pharmacologically relevant receptors, including neurotransmitter and G-protein coupled receptors for PTX-BD4-3 binding (Table S1). […] Thus, as with LM22A-4 ([Massa et al., 2010]), the specificity of PTX-BD4-3 for TrkB is supported by multiple lines of evidence, including receptor binding, receptor activation, receptor adaptor recruitment and cell survival assays.
(§1) To evaluate the relative binding specificity of LM22A-4 ([Massa et al., 2010]) and PTX-BD4-3, binding to a broad range of 55 pharmacologically relevant receptors, including numerous neurotransmitter and G-protein coupled receptors was assessed using standard radioligand competition binding assays (ExpressSProfile) performed by Cerep, Inc. (Seattle, WA, USA). In addition, ADME-Tox analysis was performed by Cerep, Inc. All experimental conditions are described on the Cerep website (www.cerep.fr). […]
(§2) 48 Ca2+ channel (L, verapamil site) 0 ‐1.3 ‐0.7
(§3) (phenylalkylamine) (antagonist radioligand) […]
(§4) 51 Na+ channel (site 2) (antagonist radioligand) 0.6 11.7 6.1
(§5) 52 Cl‐ channel (GABA‐gated) (antagonist 2.7 ‐5.3 ‐1.3 […]
Table S1. In vitro binding assays. […]
(Eurofins Panlabs, MO). The results are expressed as percent inhibition of control specific binding obtained in the presence of 10 micromolar PTX-BD4-3. […]

In another assay the target is T1, M3 (h) (Homo sapiens, UniProt P20309).
T1 construct: purchased Cerep (ExpresSProfile)
T1 sequence (P20309 whole entry): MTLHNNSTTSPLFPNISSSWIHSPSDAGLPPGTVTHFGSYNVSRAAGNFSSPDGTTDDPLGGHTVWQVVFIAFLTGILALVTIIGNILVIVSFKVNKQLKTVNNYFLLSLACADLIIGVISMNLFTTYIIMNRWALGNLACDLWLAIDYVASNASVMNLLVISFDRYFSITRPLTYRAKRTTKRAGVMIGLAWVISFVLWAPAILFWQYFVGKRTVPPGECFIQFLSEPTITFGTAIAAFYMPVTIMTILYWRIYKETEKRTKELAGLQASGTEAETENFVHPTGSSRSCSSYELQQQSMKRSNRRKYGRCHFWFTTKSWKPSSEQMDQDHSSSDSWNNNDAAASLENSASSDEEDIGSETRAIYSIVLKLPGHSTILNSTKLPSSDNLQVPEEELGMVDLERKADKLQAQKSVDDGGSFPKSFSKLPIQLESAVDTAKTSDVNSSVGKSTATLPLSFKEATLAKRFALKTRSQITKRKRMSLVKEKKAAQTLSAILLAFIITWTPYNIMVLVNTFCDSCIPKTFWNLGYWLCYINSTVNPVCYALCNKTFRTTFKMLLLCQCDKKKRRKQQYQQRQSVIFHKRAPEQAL
In words: Cerep ExpresSProfile radioligand binding. The conditions noted are these: 10 micromolar; antagonist radioligand; read-out: % Inhibition of Control Specific Binding 2nd. The method, then: as §1
(§6) Table S1. In vitro binding assays. An ExpresSProfile screen of PTX-BD4-3 binding to a panel of pharmacologically relevant receptors was conducted by Cerep, Inc.
(§7) (Eurofins Panlabs, MO). The results are expressed as percent inhibition of control specific binding obtained in the presence of 10 micromolar PTX-BD4-3. In this assay, values below 50% indicate no specific binding of PTX-BD4-3. The assay was negative for PTX-BD4-3 binding to all of the 55 receptors in the screen.
(§8) (also on this page, place not known: 2B 5‐HT 3 5‐HT 5a 5‐HT 6 5‐HT 7 (agonis t VPAC 1 V 1 Ca 2+ K V SK Ca Na + Cl ‐ 5‐HT Disease Models & Mechanisms: doi:10.1242/dmm.044685: Supplementary information Disease Models & Mechanisms • Supplementary information)

The target in another assay is T2, M1 (h) (Homo sapiens, UniProt P11229).
T2 construct: purchased Cerep (ExpresSProfile)
T2 sequence (P11229 1-460): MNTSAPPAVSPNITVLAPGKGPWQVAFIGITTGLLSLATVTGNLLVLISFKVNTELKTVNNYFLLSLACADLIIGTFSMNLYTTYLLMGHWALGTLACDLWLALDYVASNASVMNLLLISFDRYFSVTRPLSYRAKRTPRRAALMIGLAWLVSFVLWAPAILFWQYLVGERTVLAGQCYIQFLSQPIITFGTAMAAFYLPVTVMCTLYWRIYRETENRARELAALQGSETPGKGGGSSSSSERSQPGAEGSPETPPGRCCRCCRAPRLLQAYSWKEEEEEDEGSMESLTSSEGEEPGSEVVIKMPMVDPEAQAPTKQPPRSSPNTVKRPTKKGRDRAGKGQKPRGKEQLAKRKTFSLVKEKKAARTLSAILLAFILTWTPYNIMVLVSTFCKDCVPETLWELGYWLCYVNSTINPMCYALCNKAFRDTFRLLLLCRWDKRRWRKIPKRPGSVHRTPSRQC
Kind of assay: Cerep ExpresSProfile radioligand binding. The conditions noted are these: 10 micromolar, antagonist radioligand. How it is done:
as §1, §6, §7, §8

The next assay concerns the target T3, 5-HT2B (h) (Homo sapiens, UniProt P41595).
T3 construct: Cerep, Inc. (contract screen)
Kind of assay: Cerep ExpresSProfile radioligand binding. The conditions noted are these: 10 micromolar, agonist radioligand. The method, then: as §1, §6, §7, §8

A further assay addresses T4, κ (KOP) (Rattus norvegicus, UniProt P34975).
T4 construct: purchased Cerep (ExpresSProfile)
Kind of assay: Cerep ExpresSProfile radioligand binding. As to conditions: 10 micromolar; agonist radioligand; read-out: % Inhibition of Control Specific Binding 1st. How it is done: as §1, §6, §7, §8

Another assay deals with T5, B2 (h) (Homo sapiens, UniProt P30411).
T5 construct: purchased Cerep (ExpresSProfile)
T5 sequence (P30411 1-391): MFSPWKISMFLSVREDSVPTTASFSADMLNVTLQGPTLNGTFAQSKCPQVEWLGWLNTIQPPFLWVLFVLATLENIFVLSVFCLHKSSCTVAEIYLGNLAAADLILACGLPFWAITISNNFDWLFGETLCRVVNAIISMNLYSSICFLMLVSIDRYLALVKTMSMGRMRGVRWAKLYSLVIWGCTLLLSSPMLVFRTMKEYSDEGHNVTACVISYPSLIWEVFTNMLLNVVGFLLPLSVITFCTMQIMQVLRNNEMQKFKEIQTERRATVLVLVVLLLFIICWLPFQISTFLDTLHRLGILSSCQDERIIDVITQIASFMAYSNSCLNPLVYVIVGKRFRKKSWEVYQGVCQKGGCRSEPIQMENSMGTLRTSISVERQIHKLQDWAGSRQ
In words: Cerep ExpresSProfile radioligand binding. The conditions noted are these: 10 micromolar, agonist radioligand. The method, then: (§9) To evaluate the relative binding specificity of LM22A-4 ([Massa et al., 2010]) and PTX-BD4-3, binding to a broad range of 55 pharmacologically relevant receptors, including numerous neurotransmitter and G-protein coupled receptors was assessed using standard radioligand competition binding assays (ExpressSProfile) performed by Cerep, Inc. (Seattle, WA, USA). In addition, ADME-Tox analysis was performed by Cerep, Inc. All experimental conditions are described on the Cerep website (www.cerep.fr).
(§10) Ligand % Inhibition of Control Specific […]
as §2, §3, §4, §5, §6, §7, §8

A further assay deals with T6, 5-HT1A (h) (Homo sapiens, UniProt P08908).
T6 construct: purchased Cerep (ExpresSProfile)
T6 sequence (P08908 whole entry): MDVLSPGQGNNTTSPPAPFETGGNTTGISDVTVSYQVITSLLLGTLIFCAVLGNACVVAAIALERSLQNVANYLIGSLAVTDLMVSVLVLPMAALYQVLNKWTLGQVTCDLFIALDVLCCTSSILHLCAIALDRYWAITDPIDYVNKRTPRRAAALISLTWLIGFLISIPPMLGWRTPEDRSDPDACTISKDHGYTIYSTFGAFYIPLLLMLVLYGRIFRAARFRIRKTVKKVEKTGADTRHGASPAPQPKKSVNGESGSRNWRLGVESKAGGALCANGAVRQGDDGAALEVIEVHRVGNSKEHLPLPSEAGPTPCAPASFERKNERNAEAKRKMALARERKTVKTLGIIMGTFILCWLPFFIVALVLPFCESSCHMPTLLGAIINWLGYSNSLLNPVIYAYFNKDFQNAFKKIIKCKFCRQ
Kind of assay: Cerep ExpresSProfile radioligand binding. The conditions noted are these: 10 micromolar, agonist radioligand. How it is done: as §9, §10, §2, §3, §4, §5, §6, §7, §8

The next assay concerns BZD (central). In words: Cerep ExpresSProfile radioligand binding. The conditions noted are these: 10 micromolar; agonist radioligand. How it is done: as §9, §10, §2, §3, §4, §5, §6, §7, §8
In the next assay the target is T7, D2S (h) (Homo sapiens, UniProt P14416).
T7 construct: purchased Cerep (ExpresSProfile)
T7 sequence (P14416 1-414 isoform P14416-2): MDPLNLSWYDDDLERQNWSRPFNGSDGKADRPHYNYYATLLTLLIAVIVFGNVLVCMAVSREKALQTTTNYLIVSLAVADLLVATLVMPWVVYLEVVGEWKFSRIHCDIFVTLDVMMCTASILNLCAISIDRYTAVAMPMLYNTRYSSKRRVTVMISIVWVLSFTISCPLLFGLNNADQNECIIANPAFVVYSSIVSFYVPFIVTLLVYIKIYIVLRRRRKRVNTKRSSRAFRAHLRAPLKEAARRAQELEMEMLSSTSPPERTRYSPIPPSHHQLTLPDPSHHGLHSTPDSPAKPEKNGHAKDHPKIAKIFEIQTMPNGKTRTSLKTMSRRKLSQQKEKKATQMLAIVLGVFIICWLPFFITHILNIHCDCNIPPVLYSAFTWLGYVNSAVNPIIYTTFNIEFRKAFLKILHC
Kind of assay: Cerep ExpresSProfile radioligand binding. The conditions noted are these: 10 micromolar; antagonist radioligand; read-out: % Inhibition of Control Specific Binding 2nd. The method, then:
as §9, §10, §2, §3, §4, §5, §6, §7, §8

The next assay addresses T8, A2A (h) (Homo sapiens, UniProt P29274).
T8 construct: purchased Cerep (ExpresSProfile)
In words: Cerep ExpresSProfile radioligand binding. The conditions noted are these: 10 micromolar, agonist radioligand. How it is done: as §9, §10, §2, §3, §4, §5, §6, §7, §8

Setting [2] is: read-out: % Inhibition of Control Specific Binding 1st.
Setting [3] is: read-out: % Inhibition of Control Specific Binding 2nd.
The mark [4] stands for this setting: read-out: % Inhibition of Control Specific Binding Mean.

SMILES strings stand for the structures. Entries after “also recorded” stand apart in the source; their conditions may differ. Read-outs that look alike come from different tables or passages of the source.

Broadly, the inhibition is the change of the read-out against control, counted positive when it falls.

T8 sequence (P29274 whole entry): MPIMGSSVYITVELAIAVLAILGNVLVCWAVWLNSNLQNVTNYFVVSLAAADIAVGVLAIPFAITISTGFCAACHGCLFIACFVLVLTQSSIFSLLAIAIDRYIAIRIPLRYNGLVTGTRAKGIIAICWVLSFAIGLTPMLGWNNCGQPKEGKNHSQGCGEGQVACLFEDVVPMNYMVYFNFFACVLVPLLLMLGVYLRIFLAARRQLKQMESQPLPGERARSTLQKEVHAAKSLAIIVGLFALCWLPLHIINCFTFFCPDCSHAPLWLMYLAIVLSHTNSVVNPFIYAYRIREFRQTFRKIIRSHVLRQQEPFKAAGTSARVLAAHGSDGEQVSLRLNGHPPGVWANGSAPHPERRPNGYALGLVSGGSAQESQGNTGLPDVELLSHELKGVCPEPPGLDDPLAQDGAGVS
T3 sequence (P41595 whole entry): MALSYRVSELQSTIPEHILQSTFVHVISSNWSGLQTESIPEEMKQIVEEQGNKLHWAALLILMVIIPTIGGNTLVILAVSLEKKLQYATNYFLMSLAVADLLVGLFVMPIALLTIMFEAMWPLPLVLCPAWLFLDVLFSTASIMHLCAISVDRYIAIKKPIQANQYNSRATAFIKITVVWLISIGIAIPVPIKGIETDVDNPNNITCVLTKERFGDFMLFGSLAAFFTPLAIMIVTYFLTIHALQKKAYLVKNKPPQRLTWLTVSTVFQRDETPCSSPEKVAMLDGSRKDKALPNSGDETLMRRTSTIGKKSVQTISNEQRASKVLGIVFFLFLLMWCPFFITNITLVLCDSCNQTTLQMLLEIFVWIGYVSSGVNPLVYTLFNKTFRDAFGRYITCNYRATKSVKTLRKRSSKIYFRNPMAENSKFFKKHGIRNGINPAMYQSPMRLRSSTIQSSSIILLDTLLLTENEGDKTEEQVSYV
T4 sequence (P34975 whole entry): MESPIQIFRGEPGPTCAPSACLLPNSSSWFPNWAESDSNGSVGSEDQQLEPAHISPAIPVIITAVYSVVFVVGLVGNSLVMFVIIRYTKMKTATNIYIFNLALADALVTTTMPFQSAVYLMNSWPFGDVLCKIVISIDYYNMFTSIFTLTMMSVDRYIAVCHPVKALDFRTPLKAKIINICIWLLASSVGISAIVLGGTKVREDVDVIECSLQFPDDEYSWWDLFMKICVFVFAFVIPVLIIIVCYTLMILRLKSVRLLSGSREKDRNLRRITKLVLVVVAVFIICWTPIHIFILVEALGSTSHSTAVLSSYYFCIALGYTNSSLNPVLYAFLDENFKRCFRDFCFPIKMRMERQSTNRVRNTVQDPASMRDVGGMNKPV

With `COCCN(C)C(=O)c1cc(C(=O)N(C)CCOC)cc(C(=O)N(C)CCOC)c1` [PTX-BD4-3, benzene-1,3,5-tricarboxylic acid tris-[(2-methoxy-ethyl)-methyl-amide]], in assay [1], the “binding within the panel of 55 receptors” value is reported as “negative; also recorded: no significant binding”. The inhibition at 10 µM on M3 (h) was determined as 0.8%; on M1 (h) (setting [2]) it was 5%; on M1 (h) (setting [3]) it was 15%; on M1 (h) (setting [4]), 10%; at 5-HT2B (h) (setting [2]) it was 12.6%; on 5-HT2B (h) (setting [4]) it was 3.5%. For the same compound, the inhibition at 10 µM was found to be 0.9% at κ (KOP); 8.1% on B2 (h) (setting [2]); 0.3% at B2 (h) (setting [3]); 4.2% at B2 (h) (setting [4]); 19.3% on 5-HT1A (h) (setting [2]); 5% on 5-HT1A (h) (setting [4]). For the same compound, the inhibition at 10 µM at D2S (h) is 2.4%; on A2A (h) (setting [2]), 11.4%; on A2A (h) (setting [3]), 30.1%; at A2A (h) (setting [4]), 20.7%. In the assay with BZD (central), the “% Inhibition of Control Specific Binding 1st” value turned out to be 2.9%.

(Values after article PMC7710018, “Restoration of motor learning in a mouse model of Rett syndrome following long-term treatment with a novel small-molecule activator of TrkB” (Disease Models & Mechanisms, 2020).)
